Measured values: patent US6989396B2, “Tropane alkaloid multidrug resistance inhibitors from Erythroxylum pervillei and use of the same” (The Board of Trustees of the University of Illinois, priority 2001, dated 2006)
Values after ≈ are worked out from the molar mass of the structure shown. Read-outs that look alike come from different tables or passages of the source.

Columns and labels:
[1] = tested on: LNCaP, hormone-dependent prostate cancer; experiment: In vitro cytotoxicity, human tumor panel: LNCaP; assay type: cell-based; settings: for IC50: Homo sapiens, LNCaP, read-out: ED50 LNCaP
Experimental: (§1) Cytotoxicity assay. Compounds 1–9 were evaluated for cytotoxic activity against a panel of human cancer cell lines, including KB-V1 in the presence and absence of VLB, according to an established protocol (68).

Col2, colon cancer = experiment: In vitro cytotoxicity, human tumor panel: Col2; assay type: cell-based; settings: for IC50: Homo sapiens, read-out: ED50 Col2
Experimental: as §1

BC1, breast cancer = experiment: In vitro cytotoxicity, human tumor panel: BC1; assay type: cell-based; settings: for IC50: Homo sapiens, read-out: ED50 BCI
Experimental: as §1

Lu1, lung cancer = experiment: In vitro cytotoxicity, human tumor panel: Lu1; assay type: cell-based; settings: for IC50: Homo sapiens, read-out: ED50 Lu1
Experimental: as §1

KB-V1, drug resistant KB = experiment: In vitro cytotoxicity, human tumor panel: KB-V1 with or without vinblastine; assay type: cell-based; settings: for IC50: Homo sapiens, KB-V1, read-out: ED50 KB-V1−; for ED50 KB-V1+: drug resistant KB assessed in presence of vinblastine (1 μg/mL)
Experimental: as §1

[2] = tested on: SW626, human ovarian adenocarcinoma; experiment: In vitro cytotoxicity, human tumor panel: SW626; assay type: cell-based; settings: for IC50: SW626, read-out: ED50 SW626
Experimental: as §1

[3] = tested on: KB, oral epidermoid carcinoma; experiment: In vitro cytotoxicity, human tumor panel: KB; assay type: cell-based; settings: for IC50: Homo sapiens, read-out: ED50 KB
Experimental: as §1

[4] = tested on: SKVLB (ovarian adenocarcinoma, multidrug resistance); experiment: Multidrug resistance inhibition in SKVLB (pGp +ve); assay type: cell-based, human
[5] = tested on: SKOV3 (ovarian adenocarcinoma); experiment: Cytotoxicity in ovarian adenocarcinoma SKOV3 (pGp -ve); assay type: cell-based; settings: Homo sapiens, SK-OV-3, read-out: IC50 SKOV3 (pGp − ve)
Experimental: as §1

[6] = drug-resistant KB assessed in the absence of vinblastine

SMILES	IC50 [1] [µg/mL]	IC50 (Col2, colon cancer) [µg/mL]	IC50 (BC1, breast cancer) [µg/mL]	melting point [°C]	IC50 (Lu1, lung cancer) [µg/mL]	IC50 (KB-V1, drug resistant KB; [6]) [µg/mL]	ED50 KB-V1+ (KB-V1, drug resistant KB) [µg/mL]	IC50 [2] [µg/mL]	IC50 [3] [µg/mL]	ED50 LNCaP [1] [µg/mL]	ED50 Col2 (Col2, colon cancer) [µg/mL]	ED50 BCI (BC1, breast cancer) [µg/mL]	ED50 Lu1 (Lu1, lung cancer) [µg/mL]	ED50 KB-V1− (KB-V1, drug resistant KB; [6]) [µg/mL]	ED50 SW626 [2] [µg/mL]	ED50 KB [3] [µg/mL]	IC50 ([4]; Homo sapiens, read-out: IC50 BSKVLB (pGp + ve)) [µM]	IC50 ([4]; read-out: IC50 SKVLB (pGp + ve), addition of adriamycin, Addition of 1 μm adriamycin) [µM]	IC50 [5] [µM]
CN1[C@@H]2C[C@@H](OC(=O)Cc3ccccc3)C[C@H]1[C@H](O)[C@@H]2O [Compound 1, Tropane-3α,6β,7β-triol 3-phenylacetate]	> 20	> 20	> 20	120 to 122	> 20	> 20	>20	> 20	> 20	–	–	–	–	–	–	–	–	–	–
COc1cc(C(=O)O[C@H]2C[C@H]3CC[C@@H](C2)N3C)cc(OC)c1OC [Compound 2, 1αH,5αH-Tropan-3α-yl 3,4,5-trimethoxy-benzoate]	–	–	–	–	–	–	>20	–	–	>20	>20	>20	>20	>20	>20	>20	–	–	–
COc1cc(C=CC(=O)O[C@H]2[C@@H](O)[C@@H]3C[C@H](OC(=O)c4cc(OC)c(OC)c(OC)c4)C[C@H]2[N+]3(C)[O-])cc(OC)c1OC (stereo partly drawn) [Compound 4, 3α-(3,4,5-trimethoxybenzoyloxy)-6β-(3,4,5-trimethoxycinnamoyloxy)-7β-hydroxytropane N-oxide]	> 20	> 20	> 20	118 to 121	> 20	> 20	>20	> 20	> 20	–	–	–	–	–	–	–	> 10	> 10	> 10
COc1cc(C=CC(=O)O[C@H]2C[C@@H]3C[C@H](OC(=O)Cc4cccc(O)c4)C[C@H]2N3C)cc(OC)c1OC [Compound 8, 3α-(3-hydroxyphenylacetoxy)-6β-(3,4,5-trimethoxycinnamoyloxy)-tropane]	> 20	13.4 (≈ 26.2 µM)	> 20	53 to 57	> 20	> 20	1.9	8.4 (≈ 16.4 µM)	14.7 (≈ 28.7 µM)	–	–	–	–	–	–	–	–	–	–
